In PMC6152127, “Facile Synthesis of Novel Coumarin Derivatives, Antimicrobial Analysis, Enzyme Assay, Docking Study, ADMET Prediction and Toxicity Study” (Molecules : A Journal of Synthetic Chemistry and Natural …, 2017):
In brackets after ≈: the same amount, converted by molar mass.

Key:
[1] = test system: Escherichia coli (NCIM-2256); assay: In vitro antibacterial activity, MIC; type: cell-based; details: average of three readings; for MIC: Escherichia coli, NCIM2256
Experimental: (§1) The newly synthesized compounds 4a–o were screened for their in vitro antibacterial activity against the three different bacterial strains. Minimum inhibitory concentration (MIC) values for antibacterial activity were determined by standard agar method using Ampicillin as standard drug. Dimethyl sulfoxide (DMSO) was used as solvent control. […] Compound 4e bearing a 2,4-difluoro group on the phenyl ring was 48 µg/mL for E. coli, 50 µg/mL for B. subtilis and 52 µg/mL for S. aureus.
(§2) All the synthesized compounds were screened for their in vitro antifungal and antibacterial activity. The antibacterial activity was evaluated against three human pathogenic bacterial strains: Escherichia coli (NCIM-2256), Bacillus subtilis (NCIM-2063) and Staphylococcus aureus (NCIM-2901). The antifungal activity was evaluated against seven human pathogenic fungal strains: Candida albicans (NCIM-3471), Candida glabrata (NCYC-388), Fusarium oxysporum (NCIM-1332), Aspergillus fumigates (NCIM-902), Aspergillus flavus (NCIM-539), Aspergillus niger (NCIM-1196) and Cryptococcus neoformans (NCIM-576), which are often encountered clinically. Miconazole was used as standard drug. Minimum inhibitory concentration (MIC) values were determined as per CLSI guidelines. Dimethyl sulfoxide (DMSO) was used as solvent control.
(§3) All the synthesized compounds 4a–o were screened for their in vitro antibacterial activity. Minimum inhibitory concentration (MIC) values were determined using method recommended by National Committee for Clinical Laboratory Standards (NCCLS). In vitro antibacterial activities of the synthesized compounds 4a–o were tested in Nutrient Broth (NB) for bacteria by the two fold serial dilution method. Seeded broth (broth containing microbial spores) was prepared in NB from 24 h old bacterial cultures on nutrient agar (Hi-media) at 37± 1 °C. The bacterial suspension was adjusted with sterile saline to a concentration of 1× 10^−4–10^−5 C.F.U. The synthesized compounds and standard drug Ampicillin were prepared by two fold serial dilutions to obtain the required concentrations of 400, 200, 100, 50, 25, 12.5, 6.25 and 3.13 μg/mL. The tubes were incubated in BOD incubators at 37± 1 °C for bacteria. The MICs were recorded by visual observations after 24 h (for bacteria) of incubation.

[2] = test system: Staphylococcus aureus (NCIM-2901); assay: In vitro antibacterial activity, MIC; type: cell-based; details: average of three readings; for MIC: Staphylococcus aureus, NCIM2901
Experimental: as §1, §2, §3

[3] = test system: Bacillus subtilis (NCIM-2063); assay: In vitro antibacterial activity, MIC; type: cell-based; details: average of three readings; for MIC: Bacillus subtilis, NCIM2063
Experimental: as §1, §2, §3

[4] = test system: Candida glabrata (NCYC-388); assay: In vitro antifungal activity, MIC, agar method (CLSI); type: cell-based; details: Nakaseomyces glabratus; average of three readings
Experimental: (§4) The newly synthesized 3-((dicyclohexylamino)(substituted phenyl/heteryl)methyl)-4-hydroxy-2H-chromen-2-one derivatives 4a–o were screened for their in vitro antifungal activity against different yeast and filamentous fungal pathogens. […] Dimethyl sulfoxide (DMSO) was used as solvent control.
as §2, with “Miconazole was used as standard drug.” left out
(§5) Antifungal activity was determined as per CLSI (formerly, NCCLS) guidelines. […] The medium yeast nitrogen base was dissolved in phosphate buffer pH 7 and it was autoclaved at 110 °C for 10 min. With each set a growth control without the antifungal agent and solvent control DMSO were included. The fungal strains were freshly sub cultured on to Sabouraud dextrose agar (SDA) and incubated at 25 °C for 72 h. The fungal cells were suspended in sterile distilled water and diluted to get 10^5 cells/mL. Ten μL of the standardized suspension was inoculated onto the control plates and the media incorporated with the antifungal agents. The inoculated plates were incubated at 25 °C for 48 h. The readings were taken at the end of 48 h and 72 h. The MIC was the lowest concentration of drug preventing growth of macroscopically visible colonies on drug containing plates when there was visible growth on the drug free control plates.

[5] = test system: Candida albicans (NCIM-3471); assay: as above; type: cell-based; details: NCIM3471, average of three readings
Experimental: as §4
as §2, with “Miconazole was used as standard drug.” left out
as §5

[6] = test system: Aspergillus fumigates (NCIM-902); assay: as above; type: cell-based; details: NCIM902, average of three readings
Experimental: as §4
as §2, with “Miconazole was used as standard drug.” left out
as §5

[7] = test system: Aspergillus niger (NCIM-1196); assay: as above; type: cell-based; details: NCIM1196, average of three readings
Experimental: as §4
as §2, with “Miconazole was used as standard drug.” left out
as §5

[8] = test system: Aspergillus flavus (NCIM-539); assay: as above; type: cell-based; details: NCIM539, average of three readings
Experimental: as §4
as §2, with “Miconazole was used as standard drug.” left out
as §5

[9] = test system: Cryptococcus neoformans (NCIM-576); assay: as above; type: cell-based; details: NCIM576, average of three readings
Experimental: as §4
as §2, with “Miconazole was used as standard drug.” left out
as §5

[10] = test system: Fusarium oxysporum (NCIM-1332); assay: as above; type: cell-based; details: NCIM1332, average of three readings
Experimental: as §4
as §2, with “Miconazole was used as standard drug.” left out
as §5

| Structure (SMILES) | MIC [1] [µg/mL] | MIC [2] [µg/mL] | MIC [3] [µg/mL] | melting point [°C] | MIC [4] [µg/mL] | MIC [5] [µg/mL] | MIC [6] [µg/mL] | MIC [7] [µg/mL] | MIC [8] [µg/mL] | MIC [9] [µg/mL] | MIC [10] [µg/mL] | MIC Escherichia coli [1] [µg/mL] | MIC Staphylococcus aureus [2] [µg/mL] | MIC Bacillus subtilis [3] [µg/mL] |
| --- | --- | --- | --- | --- | --- | --- | --- | --- | --- | --- | --- | --- | --- | --- |
| CC1(C)S[C@@H]2[C@H](NC(=O)[C@H](N)c3ccccc3)C(=O)N2[C@H]1C(=O)O [Ampicillin, reference compound] | 50 (≈ 143 µM) | 50 (≈ 143 µM) | 50 (≈ 143 µM) |  |  |  |  |  |  |  |  |  |  |  |
| O=c1oc2ccccc2c(O)c1C(c1ccccc1)N(C1CCCCC1)C1CCCCC1 (stereo not shown) [Compound 4a, 3-((Dicyclohexylamino)(phenyl)methyl)-4-hydroxy-2H-chromen-2-one] | 70 (≈ 162 µM) | 65 (≈ 151 µM) | 68 (≈ 158 µM) | 112 to 114 | 58 (≈ 134 µM) | 66 (≈ 153 µM) | 84 (≈ 195 µM) | 43 (≈ 99.6 µM) | 38 (≈ 88 µM) | 54 (≈ 125 µM) | 55 (≈ 127 µM) |  |  |  |
| O=c1oc2ccccc2c(O)c1C(c1ccc(Cl)cc1)N(C1CCCCC1)C1CCCCC1 (stereo not shown) [Compound 4b, 3-((4-Chlorophenyl)(dicyclohexylamino)methyl)-4-hydroxy-2H-chromen-2-one] | 52 (≈ 112 µM) | 54 (≈ 116 µM) | 50 (≈ 107 µM) | 120 to 122 | 32 (≈ 68.7 µM) | 30 (≈ 64.4 µM) | 30 (≈ 64.4 µM) | 15 (≈ 32.2 µM) | 14 (≈ 30 µM) | 15 (≈ 32.2 µM) | 34 (≈ 73 µM) |  |  |  |
| O=c1oc2ccccc2c(O)c1C(c1c(Cl)cccc1Cl)N(C1CCCCC1)C1CCCCC1 (stereo not shown) [Compound 4c, 3-((2,6-Dichlorophenyl)(dicyclohexylamino)methyl)-4-hydroxy-2H-chromen-2-one] | 50 (≈ 99.9 µM) | 50 (≈ 99.9 µM) | 48 (≈ 95.9 µM) | 126 to 128 | 28 (≈ 55.9 µM) | 30 (≈ 59.9 µM) | 28 (≈ 55.9 µM) | 18 (≈ 36 µM) | 15 (≈ 30 µM) | 14 (≈ 28 µM) | 35 (≈ 69.9 µM) | 50 (≈ 99.9 µM) | 50 (≈ 99.9 µM) | 48 (≈ 95.9 µM) |
| O=c1oc2ccccc2c(O)c1C(c1ccc(F)cc1)N(C1CCCCC1)C1CCCCC1 (stereo not shown) [Compound 4d, 3-((Dicyclohexylamino)(4-fluorophenyl)methyl)-4-hydroxy-2H-chromen-2-one] | 50 (≈ 111 µM) | 50 (≈ 111 µM) | 49 (≈ 109 µM) | 122 to 124 | 30 (≈ 66.7 µM) | 28 (≈ 62.3 µM) | 28 (≈ 62.3 µM) | 20 (≈ 44.5 µM) | 15 (≈ 33.4 µM) | 18 (≈ 40 µM) | 30 (≈ 66.7 µM) |  |  |  |
| COc1ccc(C(c2c(O)c3ccccc3oc2=O)N(C2CCCCC2)C2CCCCC2)cc1 (stereo not shown) [Compound 4f, 3-((Dicyclohexylamino)(4-methoxyphenyl)methyl)-4-hydroxy-2H-chromen-2-one] | 64 (≈ 139 µM) | 55 (≈ 119 µM) | 58 (≈ 126 µM) | 133 to 135 | 57 (≈ 123 µM) | 43 (≈ 93.2 µM) | 44 (≈ 95.3 µM) | 22 (≈ 47.7 µM) | 20 (≈ 43.3 µM) | 20 (≈ 43.3 µM) | 39 (≈ 84.5 µM) |  |  |  |
| COc1ccc(C(c2c(O)c3ccccc3oc2=O)N(C2CCCCC2)C2CCCCC2)cc1OC (stereo not shown) [Compound 4g, 3-((Dicyclohexylamino)(3,4-dimethoxyphenyl)methyl)-4-hydroxy-2H-chromen-2-one] | 62 (≈ 126 µM) | 62 (≈ 126 µM) | 60 (≈ 122 µM) | 138 to 140 | 57 (≈ 116 µM) | 50 (≈ 102 µM) | 52 (≈ 106 µM) | 20 (≈ 40.7 µM) | 24 (≈ 48.8 µM) | 26 (≈ 52.9 µM) | 35 (≈ 71.2 µM) |  |  |  |
| COc1cc(C(c2c(O)c3ccccc3oc2=O)N(C2CCCCC2)C2CCCCC2)cc(OC)c1OC (stereo not shown) [Compound 4h, 3-((Dicyclohexylamino)(3,4,5-trimethoxyphenyl)methyl)-4-hydroxy-2H-chromen-2-one] | 68 (≈ 130 µM) | 66 (≈ 127 µM) | 68 (≈ 130 µM) | 136 to 138 | 64 (≈ 123 µM) | 48 (≈ 92 µM) | 50 (≈ 95.8 µM) | 34 (≈ 65.2 µM) | 38 (≈ 72.8 µM) | 34 (≈ 65.2 µM) | 45 (≈ 86.3 µM) |  |  |  |
| O=c1oc2ccccc2c(O)c1C(c1ccc(O)cc1)N(C1CCCCC1)C1CCCCC1 (stereo not shown) [Compound 4i, 3-((Dicyclohexylamino)(4-hydroxyphenyl)methyl)-4-hydroxy-2H-chromen-2-one] | 64 (≈ 143 µM) | 67 (≈ 150 µM) | 66 (≈ 147 µM) | 128 to 130 | 35 (≈ 78.2 µM) | 32 (≈ 71.5 µM) | 42 (≈ 93.8 µM) | 28 (≈ 62.6 µM) | 25 (≈ 55.9 µM) | 24 (≈ 53.6 µM) | 35 (≈ 78.2 µM) |  |  |  |
| O=c1oc2ccccc2c(O)c1C(c1ccccc1O)N(C1CCCCC1)C1CCCCC1 (stereo not shown) [Compound 4j, 3-((Dicyclohexylamino)(2-hydroxyphenyl)methyl)-4-hydroxy-2H-chromen-2-one] | 68 (≈ 152 µM) | 72 (≈ 161 µM) | 72 (≈ 161 µM) | 130 to 132 | 47 (≈ 105 µM) | 46 (≈ 103 µM) | 55 (≈ 123 µM) | 30 (≈ 67 µM) | 32 (≈ 71.5 µM) | 35 (≈ 78.2 µM) | 38 (≈ 84.9 µM) |  |  |  |
| CCOc1cc(C(c2c(O)c3ccccc3oc2=O)N(C2CCCCC2)C2CCCCC2)ccc1O (stereo not shown) [Compound 4l, 3-((Dicyclohexylamino)(3-ethoxy-4-hydroxyphenyl)methyl)-4-hydroxy-2H-chromen-2-one] | 56 (≈ 114 µM) | 54 (≈ 110 µM) | 54 (≈ 110 µM) | 140 to 142 | 28 (≈ 57 µM) | 25 (≈ 50.9 µM) | 36 (≈ 73.2 µM) | 12 (≈ 24.4 µM) | 15 (≈ 30.5 µM) | 12 (≈ 24.4 µM) | 28 (≈ 57 µM) |  |  |  |
| O=c1oc2ccccc2c(O)c1C(c1ccccn1)N(C1CCCCC1)C1CCCCC1 (stereo not shown) [Compound 4m, 3-((Dicyclohexylamino)(pyridin-2-yl)methyl)-4-hydroxy-2H-chromen-2-one] | 68 (≈ 157 µM) | 78 (≈ 180 µM) | 74 (≈ 171 µM) | 148 to 150 | 46 (≈ 106 µM) | 48 (≈ 111 µM) | 45 (≈ 104 µM) | 22 (≈ 50.9 µM) | 25 (≈ 57.8 µM) | 28 (≈ 64.7 µM) | 40 (≈ 92.5 µM) |  |  |  |
| O=c1oc2ccccc2c(O)c1C(c1cccs1)N(C1CCCCC1)C1CCCCC1 (stereo not shown) [Compound 4n, 3-((Dicyclohexylamino)(thiophen-2-yl)methyl)-4-hydroxy-2H-chromen-2-one] | 65 (≈ 149 µM) | 72 (≈ 165 µM) | 74 (≈ 169 µM) | 140 to 142 | 53 (≈ 121 µM) | 55 (≈ 126 µM) | 67 (≈ 153 µM) | 38 (≈ 86.8 µM) | 32 (≈ 73.1 µM) | 33 (≈ 75.4 µM) | 58 (≈ 133 µM) |  |  |  |
| Clc1ccc(COC(Cn2ccnc2)c2ccc(Cl)cc2Cl)c(Cl)c1 (stereo not shown) [Miconazole, reference compound] |  |  |  |  | 25 (≈ 60.1 µM) | 25 (≈ 60.1 µM) | 35 (≈ 84.1 µM) | 12 (≈ 28.8 µM) | 12 (≈ 28.8 µM) | 12 (≈ 28.8 µM) | 25 (≈ 60.1 µM) |  |  |  |
